In US20100292231A1, “Indazole Compounds for Treating Inflammatory Disorders, Demyelinating Disorders and Cancers” (priority 2007, published 2010):

Key:
Experiment in all cases: SelectScreen kinase specificity survey
Assay type in all cases: biochemical
Conditions in all cases: estimated, abridged dose response curve, read-out: Kinase inhibitory activity EC50
RPS6KB1 (p70S6K) = RPS6KB1 (p70S6K) (Homo sapiens, UniProt P23443)
Description: (§1) Testing of the compounds described in this invention was carried out using the SelectScreen™ platform from Invitrogen, Inc. (Carlsbad. Calif., USA) and the details of its performance are readily viewed via the web by linking to: http://www.invitrogen.com/downloads/SelectScrn_Brochure.pdf.
(§2) Briefly, the approach is based on treating each specific kinase with a unique substrate and optical reporter system in the presence of ATP at 100 micromolar. In controls, the substrate is phosphorylated and a baseline optimal response is recorded.
(§3) The compounds were then re-tested by adding graded amounts of putative inhibitor which were added in 5 separate increments to generate a dose response curve. The latter is obtained by fitting to a 4 parameter Hill equation, a sigmoid saturation equation.
(§4) The same assay system described in Example 2 can be applied in the determination of kinase specificity. It is well understood by medicinal chemists in the development of kinase inhibitors that the resulting molecules often lack specificity. Not only are homologous kinases inhibited by the same class of compounds, but also non-homologous kinases can be affected by allosteric, induced, activated vs inactivated conformation, and protein folding interactions with the putative inhibitor, which otherwise had been designed to be specific. These off target effects are difficult to predict and can only be ruled in or out by empirically surveying a large set of kinases. It is also understood that changes to scaffolds and variation in their chemical decorations may influence the extent of promiscuity in the patterns of kinase inhibition across kinase classes.
(§5) The following experiment was conducted to address this issue. The indazole compound (IV), described in Example 2 and representative of the new genus was tested along with Symadex against a panel of 230 kinases representative of all known kinases classes. Included in the survey were the Flt3, its mutant, and close relatives in the Class III receptor tyrosine kinase class, together with serine-threonine kinases and atypical kinases many of which share no homology of active site with Flt3 as shown, for example, in the respective “genecard” for each kinase and available for inspection at on the web at http://www.genecards.org/.
(§6) Table 3 lists the estimated EC50 values from an abridged dose response curve for Symadex (C-1311) and CF-123. The kinases are listed alphabetically by Group and Family.

SRC N1 = biological target: T1, SRC N1 (Homo sapiens, UniProt P12931)
T1 construct: purchased Invitrogen (SelectScreen)
T1 sequence (P12931 1-542 isoform P12931-2): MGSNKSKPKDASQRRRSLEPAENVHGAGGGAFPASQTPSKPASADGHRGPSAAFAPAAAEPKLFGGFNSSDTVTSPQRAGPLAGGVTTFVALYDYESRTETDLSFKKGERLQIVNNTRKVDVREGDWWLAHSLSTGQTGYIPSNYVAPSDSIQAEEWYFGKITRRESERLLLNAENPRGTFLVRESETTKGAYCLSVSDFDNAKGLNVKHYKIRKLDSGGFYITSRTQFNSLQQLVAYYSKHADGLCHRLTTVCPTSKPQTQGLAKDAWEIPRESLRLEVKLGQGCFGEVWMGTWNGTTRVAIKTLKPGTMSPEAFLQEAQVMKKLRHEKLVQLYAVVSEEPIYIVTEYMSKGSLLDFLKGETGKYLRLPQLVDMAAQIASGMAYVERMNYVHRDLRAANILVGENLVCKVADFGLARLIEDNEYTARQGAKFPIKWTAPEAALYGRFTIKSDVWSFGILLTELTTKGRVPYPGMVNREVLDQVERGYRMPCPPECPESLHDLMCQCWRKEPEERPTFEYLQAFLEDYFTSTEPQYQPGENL
Description: as §1, §2, §3, §4, §5, §6

MAP3K9 (MLK1) = biological target: T2, MAP3K9 (MLK1) (Homo sapiens, UniProt P80192)
T2 construct: purchased Invitrogen, Inc. (SelectScreen platform)
T2 sequence (P80192 whole entry): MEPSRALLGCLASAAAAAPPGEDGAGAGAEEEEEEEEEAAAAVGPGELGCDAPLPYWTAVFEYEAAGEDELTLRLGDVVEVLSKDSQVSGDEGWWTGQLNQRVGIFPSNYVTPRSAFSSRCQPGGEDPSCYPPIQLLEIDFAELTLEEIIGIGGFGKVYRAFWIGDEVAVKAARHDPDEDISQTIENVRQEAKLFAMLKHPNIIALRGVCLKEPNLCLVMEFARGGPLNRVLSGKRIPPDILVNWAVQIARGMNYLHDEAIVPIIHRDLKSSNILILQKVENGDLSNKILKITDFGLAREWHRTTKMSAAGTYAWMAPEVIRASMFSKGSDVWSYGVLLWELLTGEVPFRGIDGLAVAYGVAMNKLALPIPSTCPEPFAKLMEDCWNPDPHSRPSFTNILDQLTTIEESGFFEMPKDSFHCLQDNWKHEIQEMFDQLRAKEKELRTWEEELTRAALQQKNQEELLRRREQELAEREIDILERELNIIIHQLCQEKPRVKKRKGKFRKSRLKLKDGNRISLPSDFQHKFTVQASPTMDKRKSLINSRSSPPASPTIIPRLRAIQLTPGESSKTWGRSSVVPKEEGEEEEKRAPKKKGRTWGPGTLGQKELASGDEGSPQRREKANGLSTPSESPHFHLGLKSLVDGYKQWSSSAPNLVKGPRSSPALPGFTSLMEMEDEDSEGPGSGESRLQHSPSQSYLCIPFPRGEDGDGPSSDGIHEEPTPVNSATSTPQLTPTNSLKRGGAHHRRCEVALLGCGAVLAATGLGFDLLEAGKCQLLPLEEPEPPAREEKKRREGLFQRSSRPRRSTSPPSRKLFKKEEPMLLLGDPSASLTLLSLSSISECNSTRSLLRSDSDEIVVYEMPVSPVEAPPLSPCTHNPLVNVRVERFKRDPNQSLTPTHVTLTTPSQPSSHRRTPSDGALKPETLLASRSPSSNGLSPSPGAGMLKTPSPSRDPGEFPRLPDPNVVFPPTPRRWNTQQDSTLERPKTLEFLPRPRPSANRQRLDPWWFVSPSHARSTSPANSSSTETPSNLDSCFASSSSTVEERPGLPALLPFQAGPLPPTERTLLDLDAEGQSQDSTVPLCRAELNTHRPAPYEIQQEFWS
Description: as §1, §2, §3, §4, §5, §6

FGFR1 = biological target: T3, FGFR1 (Homo sapiens, UniProt P11362)
T3 construct: purchased Invitrogen (SelectScreen service)
Description: as §1, §2, §3, §4, §5, §6

EPHB4 = biological target: T4, EPHB4 (Homo sapiens, UniProt P54760)
T4 construct: purchased Invitrogen (SelectScreen service)
T4 sequence (P54760 16-987): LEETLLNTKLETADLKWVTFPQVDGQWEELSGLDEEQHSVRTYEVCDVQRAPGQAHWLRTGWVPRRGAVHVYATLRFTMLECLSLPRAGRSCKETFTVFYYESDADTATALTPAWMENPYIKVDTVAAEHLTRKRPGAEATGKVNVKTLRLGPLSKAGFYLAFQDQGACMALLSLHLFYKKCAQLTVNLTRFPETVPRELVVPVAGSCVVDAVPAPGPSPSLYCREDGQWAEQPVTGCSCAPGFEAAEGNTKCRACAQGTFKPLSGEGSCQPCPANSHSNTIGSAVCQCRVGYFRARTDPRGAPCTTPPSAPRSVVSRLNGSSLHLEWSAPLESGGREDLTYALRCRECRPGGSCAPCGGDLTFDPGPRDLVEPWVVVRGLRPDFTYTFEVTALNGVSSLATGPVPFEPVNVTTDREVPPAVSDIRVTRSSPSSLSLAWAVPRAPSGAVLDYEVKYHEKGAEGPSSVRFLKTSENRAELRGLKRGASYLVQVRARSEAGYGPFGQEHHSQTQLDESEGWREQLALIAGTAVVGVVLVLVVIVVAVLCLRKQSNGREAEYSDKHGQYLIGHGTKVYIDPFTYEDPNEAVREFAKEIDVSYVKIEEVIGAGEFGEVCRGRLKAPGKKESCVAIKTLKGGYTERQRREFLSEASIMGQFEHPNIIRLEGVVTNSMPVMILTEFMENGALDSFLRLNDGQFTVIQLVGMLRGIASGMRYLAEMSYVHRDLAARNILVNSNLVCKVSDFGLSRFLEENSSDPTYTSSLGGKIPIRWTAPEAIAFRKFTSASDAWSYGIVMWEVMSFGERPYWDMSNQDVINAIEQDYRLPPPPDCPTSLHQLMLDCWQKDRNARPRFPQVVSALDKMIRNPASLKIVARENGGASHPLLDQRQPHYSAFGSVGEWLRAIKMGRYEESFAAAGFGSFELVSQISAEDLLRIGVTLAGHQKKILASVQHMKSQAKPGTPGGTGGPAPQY
Description: as §1, §2, §3, §4, §5, §6

MATK (HYL, CTK) = biological target: T5, MATK (HYL, CTK) (Homo sapiens, UniProt P42679)
T5 construct: purchased Invitrogen (SelectScreen service)
Description: as §1, §2, §3, §4, §5, §6

EPHA1 = biological target: T6, EPHA1 (Homo sapiens, UniProt P21709)
T6 construct: purchased Invitrogen (SelectScreen service)
Description: as §1, §2, §3, §4, §5, §6

STK25 (YSK1) = biological target: T7, STK25 (YSK1) (Homo sapiens, UniProt O00506)
T7 construct: purchased Invitrogen (SelectScreen platform)
Description: as §1, §2, §3, §4, §5, §6

CSNK2A1 (CK2 alpha 1) = biological target: T8, CSNK2A1 (CK2 alpha 1) (Homo sapiens, UniProt P68400)
T8 construct: purchased Invitrogen, Inc. (SelectScreen service)
T8 sequence (P68400 whole entry): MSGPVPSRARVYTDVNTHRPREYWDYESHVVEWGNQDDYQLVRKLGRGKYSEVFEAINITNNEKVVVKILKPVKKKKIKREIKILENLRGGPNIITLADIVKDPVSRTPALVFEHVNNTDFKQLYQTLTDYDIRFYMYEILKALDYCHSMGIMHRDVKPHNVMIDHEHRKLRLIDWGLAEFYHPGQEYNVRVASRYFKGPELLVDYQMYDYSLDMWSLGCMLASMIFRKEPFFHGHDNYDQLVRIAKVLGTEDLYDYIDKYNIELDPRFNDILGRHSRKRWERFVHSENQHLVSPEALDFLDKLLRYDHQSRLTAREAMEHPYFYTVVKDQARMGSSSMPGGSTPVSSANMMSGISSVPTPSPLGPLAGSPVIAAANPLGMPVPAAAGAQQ
Description: as §1, §2, §3, §4, §5, §6

MAPK3 (ERK1) = biological target: T9, MAPK3 (ERK1) (Homo sapiens, UniProt P27361)
T9 construct: purchased Invitrogen, Inc. (SelectScreen service)
T9 sequence (P27361 whole entry): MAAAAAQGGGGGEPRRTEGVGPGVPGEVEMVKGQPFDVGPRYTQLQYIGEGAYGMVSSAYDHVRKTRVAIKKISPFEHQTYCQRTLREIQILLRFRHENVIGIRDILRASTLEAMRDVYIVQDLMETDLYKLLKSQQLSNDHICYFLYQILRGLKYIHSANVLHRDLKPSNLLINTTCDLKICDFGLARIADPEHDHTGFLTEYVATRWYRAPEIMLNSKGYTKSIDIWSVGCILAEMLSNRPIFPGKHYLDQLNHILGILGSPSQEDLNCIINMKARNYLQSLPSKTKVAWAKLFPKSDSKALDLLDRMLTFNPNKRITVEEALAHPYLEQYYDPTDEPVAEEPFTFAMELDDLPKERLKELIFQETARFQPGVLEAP
Description: as §1, §2, §3, §4, §5, §6

EPHB3 = biological target: T10, EPHB3 (Homo sapiens, UniProt P54753)
T10 construct: purchased Invitrogen (SelectScreen service)
T10 sequence (P54753 34-998): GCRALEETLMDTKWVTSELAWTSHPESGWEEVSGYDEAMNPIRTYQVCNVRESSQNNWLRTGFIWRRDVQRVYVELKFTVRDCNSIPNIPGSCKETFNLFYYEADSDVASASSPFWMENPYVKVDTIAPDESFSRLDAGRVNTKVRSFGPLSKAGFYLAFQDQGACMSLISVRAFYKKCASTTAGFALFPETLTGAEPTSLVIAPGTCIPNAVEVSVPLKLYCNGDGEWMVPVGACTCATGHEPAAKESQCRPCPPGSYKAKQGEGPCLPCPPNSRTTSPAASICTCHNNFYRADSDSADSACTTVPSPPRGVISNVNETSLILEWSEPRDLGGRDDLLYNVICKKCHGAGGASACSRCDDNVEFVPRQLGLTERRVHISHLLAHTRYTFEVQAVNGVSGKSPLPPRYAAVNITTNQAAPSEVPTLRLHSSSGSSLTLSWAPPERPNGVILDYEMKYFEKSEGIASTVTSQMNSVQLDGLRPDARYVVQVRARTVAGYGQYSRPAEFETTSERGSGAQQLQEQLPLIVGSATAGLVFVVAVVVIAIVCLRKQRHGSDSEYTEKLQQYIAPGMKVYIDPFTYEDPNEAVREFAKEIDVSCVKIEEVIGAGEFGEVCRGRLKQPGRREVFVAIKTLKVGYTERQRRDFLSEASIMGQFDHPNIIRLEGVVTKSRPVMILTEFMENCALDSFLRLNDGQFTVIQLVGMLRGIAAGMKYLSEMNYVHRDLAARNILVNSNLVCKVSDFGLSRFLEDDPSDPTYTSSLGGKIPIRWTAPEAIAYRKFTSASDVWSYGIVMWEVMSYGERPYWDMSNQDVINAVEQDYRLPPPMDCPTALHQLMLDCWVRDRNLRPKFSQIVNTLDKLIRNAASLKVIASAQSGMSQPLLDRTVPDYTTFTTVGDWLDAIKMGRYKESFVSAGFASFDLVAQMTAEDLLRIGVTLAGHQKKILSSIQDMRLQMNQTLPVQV
Description: as §1, §2, §3, §4, §5, §6

FLT3 = biological target: T11, FLT3 (Homo sapiens, UniProt P36888)
T11 construct: purchased Invitrogen (SelectScreen platform)
T11 sequence (P36888 27-993): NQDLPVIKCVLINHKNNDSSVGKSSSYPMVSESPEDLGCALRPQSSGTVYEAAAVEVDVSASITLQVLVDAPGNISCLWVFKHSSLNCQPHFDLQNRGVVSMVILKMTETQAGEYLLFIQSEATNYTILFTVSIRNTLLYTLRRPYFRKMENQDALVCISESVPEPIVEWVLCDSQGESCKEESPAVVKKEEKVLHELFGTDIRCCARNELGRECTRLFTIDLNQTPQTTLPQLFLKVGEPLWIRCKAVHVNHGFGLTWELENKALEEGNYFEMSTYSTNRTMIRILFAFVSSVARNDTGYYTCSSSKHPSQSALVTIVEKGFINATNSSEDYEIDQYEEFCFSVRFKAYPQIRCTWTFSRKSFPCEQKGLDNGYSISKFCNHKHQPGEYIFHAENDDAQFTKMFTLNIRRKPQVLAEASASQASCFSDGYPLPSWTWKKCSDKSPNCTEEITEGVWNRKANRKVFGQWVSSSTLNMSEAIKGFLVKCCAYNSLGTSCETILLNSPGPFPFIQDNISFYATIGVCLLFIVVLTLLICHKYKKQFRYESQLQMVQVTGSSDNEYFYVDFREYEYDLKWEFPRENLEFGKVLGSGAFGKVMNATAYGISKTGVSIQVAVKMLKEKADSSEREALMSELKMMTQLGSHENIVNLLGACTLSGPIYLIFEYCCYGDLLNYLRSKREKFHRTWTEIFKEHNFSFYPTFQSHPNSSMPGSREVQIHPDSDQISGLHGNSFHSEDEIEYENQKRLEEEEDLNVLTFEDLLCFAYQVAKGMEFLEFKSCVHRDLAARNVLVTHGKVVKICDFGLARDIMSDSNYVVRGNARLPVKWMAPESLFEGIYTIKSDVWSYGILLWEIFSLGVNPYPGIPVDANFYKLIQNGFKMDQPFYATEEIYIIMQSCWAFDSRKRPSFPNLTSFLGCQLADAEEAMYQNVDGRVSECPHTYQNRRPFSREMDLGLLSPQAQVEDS
Description: as §1, §2, §3, §4, §5, §6

CSNK2A2 (CK2 alpha 2) = biological target: T12, CSNK2A2 (CK2 alpha 2) (Homo sapiens, UniProt P19784)
T12 construct: purchased Invitrogen, Inc. (SelectScreen service)
Description: as §1, §2, §3, §4, §5, §6

BLK = biological target: T13, BLK (Homo sapiens, UniProt P51451)
T13 construct: purchased Invitrogen (SelectScreen)
Description: as §1, §2, §3, §4, §5, §6

ACVR1B (ALK4) = biological target: T14, ACVR1B (ALK4) (Homo sapiens, UniProt P36896)
T14 construct: purchased Invitrogen, Inc. (SelectScreen platform)
T14 sequence (P36896 24-505): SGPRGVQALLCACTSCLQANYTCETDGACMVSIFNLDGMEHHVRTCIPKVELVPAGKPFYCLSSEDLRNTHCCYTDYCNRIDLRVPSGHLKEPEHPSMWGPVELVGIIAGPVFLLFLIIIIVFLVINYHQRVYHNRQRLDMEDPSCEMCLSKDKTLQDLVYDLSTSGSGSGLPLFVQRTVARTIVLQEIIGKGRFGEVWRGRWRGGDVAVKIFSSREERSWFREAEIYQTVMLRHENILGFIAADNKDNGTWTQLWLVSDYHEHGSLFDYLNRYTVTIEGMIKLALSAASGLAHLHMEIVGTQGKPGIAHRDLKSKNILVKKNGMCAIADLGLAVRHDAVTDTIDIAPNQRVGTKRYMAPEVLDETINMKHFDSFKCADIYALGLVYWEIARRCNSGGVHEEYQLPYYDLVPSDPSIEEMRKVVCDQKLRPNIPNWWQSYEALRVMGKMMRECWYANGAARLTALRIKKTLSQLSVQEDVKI
Description: as §1, §2, §3, §4, §5, §6

MAP2K6 (MKK6) = biological target: T15, MAP2K6 (MKK6) (Homo sapiens, UniProt P52564)
T15 construct: purchased Invitrogen (SelectScreen platform)
Description: as §1, §2, §3, §4, §5, §6

Row | SMILES | EC50 (RPS6KB1 (p70S6K)) [µM] | EC50 (SRC N1) [µM] | EC50 (MAP3K9 (MLK1)) [µM] | EC50 (FGFR1) [µM] | EC50 (EPHB4) [µM] | EC50 (MATK (HYL, CTK)) [µM] | EC50 (EPHA1) [µM] | EC50 (STK25 (YSK1)) [µM] | EC50 (CSNK2A1 (CK2 alpha 1)) [µM] | EC50 (MAPK3 (ERK1)) [µM] | EC50 (EPHB3) [µM] | EC50 (FLT3) [µM] | EC50 (CSNK2A2 (CK2 alpha 2)) [µM] | EC50 (BLK) [µM] | EC50 (ACVR1B (ALK4)) [µM] | EC50 (MAP2K6 (MKK6)) [µM]
1 | CN(C)CCCNc1ccc2ncn3c4ccc5[nH]ncc5c4c(=O)c1c23 [Compound (IV)] | 2.37 | 0.511 | > 5 | 3.57 | > 5 | > 5 | > 5 | > 5 | > 5 | > 5 | > 5 | 0.008 | > 5 | 0.481 | > 5 | > 5
2 | CCN(CC)CCNc1ccc2ncn3c4ccc(O)cc4c(=O)c1c23 [Symadex, 5-(2-(diethylamino)ethylamino)-8-hydroxy-6H-imidazo[4,5,1-de]acridin-6-one, reference compound] | > 5 | 3.15 | > 5 | 2.39 | > 5 | > 5 | > 5 | > 5 | > 5 | > 5 | > 5 | 0.015 | 4.8 | 0.22 | > 5 | > 5
